Source: patent publication US20050143366A1, “Compounds for diagnosis, treatment and prevention of bone injury and metabolic disorders” (priority 2003, published 2005)

Assays:
[1] = Binding to microcrystalline hydroxyapatite from dilute aqueous solution; conditions: for % Adsorbed: 10^-5 M in 99:1 H2O:DMSO, 0.5% (w/v) slurried HA in Tris, mixed about 4 minutes, UV of supernatant; for Binding Index: Tetracycline positive control = 100
Source text: The ability of the compounds of the present invention to act as bone targeted pharmaceuticals is estimated initially by determination of the ability of the compounds to be bound to microcrystalline hydroxyapatite [Ca10(PO4)6.OH2] (HA) from a dilute aqueous solution. Solutions of test compounds are constructed in about 99: 1, v/v, H2O:dimethylsulfoxide (DMSO) at 10^−5M. These solutions are taken for determination of electronic photometric absorption spectra scanning from λ=500-190 nm. Absorption maxima (λmax) and extinction coefficients (ε) are determined using the Beer-Lambert law. […] These solutions and slurries are mixed for about 4 minutes, then centrifuged for about 3 minutes at 10,000×g. Supernatants are taken for UV absorption spectrometry at previously determined λmax. Concentrations of test compound are determined and the extent of binding is calculated. Tetracycline is included as a positive control compound.

[2] = tested on: bone loss associated with OVX; test: Whole femoral density in ovariectomized rats, ED50 for preventing bone loss; format: in vivo, Sprague-Dawley female rats; conditions: dosing 3 times a week for about 6 weeks, dose preventing about 50% of the bone loss, by interpolation; for ED50: Rattus norvegicus, 1008 h, read-out: ED50 (nmol/kg) for preservation of Femoral Mass
Description: In vivo experiments—Bilaterally ovariectomized and sham operated Sprague-Dawley female rats (150-170 g) from Harlan Laboratories (Indianapolis, Ind.) are housed on about a 12 hour dark/light cycle at 22° C. with ad libitum access to tap water and food (Purina Laboratory Rodent Diet 5001: 0.95% calcium, 0.67% total phosphorous, and 0.40% non-phytate phosphorous). The rats are randomly assigned into groups of about 6 to 10 animals. Compound administration begins about 4 days after surgery. […] All compounds are dissolved in 5% DMSO in corn oil. After about 6 weeks of dosing, animals are euthanized by carbon dioxide asphyxiation. Blood is collected by cardiac puncture, and uteri and both left and right femurs are removed. Fresh weights of uteri are obtained. All animal procedures and care are approved by the internal animal care and use committee to ensure compliance with NIH guidelines. Determination of whole femoral density.—Following removal, femurs are rubbed clean of soft tissue using gauze, and femur fresh weights are measured. Femurs are then submerged in distilled water under a vacuum for about 1 hour to completely hydrate the femurs. Densities are determined by Archimedes' Principle using the following formula: density=[mass of hydrated femur/(mass of hydrated femur-mass of hydrated femur submerged in water)]*density of water at ambient temperature. The dose that is effective in preventing about 50% of the bone loss associated with OVX (ED50) is determined by interpolation.

[3] = tested on: bone strength of femora from OVX rats; test: Blunt indentation force to failure test of the distal femoral metaphysis; format: in vivo; conditions: FIG. 1
Description: FIG. 1 is a bar graph showing the distal femur strength of animals including those treated with an exemplary compound of the present invention.
Bone density is not necessarily the equivalent to bone strength, so an additional test (blunt indentation force of the distal metaphysis) is performed as well. With reference to FIG. 1, as a measure of bone mechanical competence, a blunt indentation force to failure test is performed on femora from about 6-week-old OVX rats. Sham operated animals are simultaneously tested as a control.

For CC12CCC3c4ccc(O)cc4CCC3C1CCC2OC(=O)CCC(=O)Nc1ccc(O)c(C(N)=O)c1O (centres unmarked) [BTE2-A1], the “% Adsorbed” value [1] was 54%, the “Binding Index” value [1] was 105 and the ED50 [2] was 8 nmol/kg.
In the case of Raloxifene [reference compound], the “effect on bone strength (blunt indentation force to failure)” value ([3]; at a normal dose) is reported as about 30% and the “ED50 (nmol/kg) for preservation of Femoral Mass” value [2] is reported as 210 nmol/kg.
With C[C@]12CC[C@@H]3c4ccc(O)cc4CC[C@H]3[C@@H]1CC[C@@H]2O [17-β-estradiol, reference compound] the “% Adsorbed” value [1] was −4.0%, the “Binding Index” value [1] was −8 and the “bone strength (blunt indentation force to failure, distal femur)” value [3] was “completely protect against osteopenia”. For the same compound, the ED50 [2] was 10 nmol/kg.
For COc1ccc(NC(=O)CCCCC(=O)OC2CCC3C4CCc5cc(O)ccc5C4CCC23C)c(O)c1C(N)=O (centres unmarked) [BTE2-B2], the “% Adsorbed” value [1] was 99.1%, the “Binding Index” value [1] was 192 and the ED50 [2] was 9 nmol/kg.
With COc1ccc(NC(=O)CCC(=O)OC2CCC3C4CCc5cc(O)ccc5C4CCC23C)c(O)c1C(N)=O (centres unmarked) [BTE2-A2] the “% Adsorbed” value [1] was 91.7%, the “Binding Index” value [1] was 178 and the ED50 [2] was 19 nmol/kg.
In the case of NC(=O)c1c(O)ccc(N)c1O [3-amino-2,6-dihydroxybenzamide, reference compound], the “% Adsorbed” value [1] is reported as 25.4% and the “Binding Index” value [1] is reported as 49.
